The source made the active and inactive calls.
Columns and labels:
[1] = molecular target: Ras and Rab interactor 1/Tyrosine-protein kinase ABL1 (Homo sapiens, UniProt P00519+Q13671); format: functional;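 also: biochemical TR-FRET dose-response test measuring inhibition of binding between Rin1 and Abl proteins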
[2] = molecular target: T1, Small ubiquitin-related modifier 1 (Homo sapiens, UniProt P63165); assay: SUMO1 protein interaction blockers, potency – biochemical, fluorescence polarization, uHTS hits, dose response (AID 624382); format: functional; details: read-out: IC50_Mean
[3] = molecular target: T1, Small ubiquitin-related modifier 1; assay: SUMO1 protein-protein binding blockers, potency – biochemical, FRET, dose response (AID 624383); format: functional; details: read-out: IC50_Mean
[4] = viability of HCT116 lacking mutant beta-catenin – cell-based, human colon tumor, dose response (AID 1045); format: functional;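 also: HCT116 colon tumor cells with beta catenin knocked out; cells exposed to compound for 60 hours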
[5] = loss of viability in HepG2 cells – cell-based, CellTiter-Glo, cherry-picked, cytotoxicity control for Shn3 inhibitor project, dose response (AID 624134); format: functional
[6] = viability of PTEN-deleted HCT116 cells – cell-based, HCT116 PTEN knockout, dose response (AID 1047); format: functional;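 also: HCT116 colon tumor cells with PTEN knocked out; cells exposed to compound for 60 hours before readout; potency for loss of cell viability measured by luminescence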
[7] = molecular target: T2, Heat shock factor protein 1 (Mus musculus, UniProt P38532); assay: enhancement of HSF1-driven luciferase signal – cell-based, NIH3T3, luminescence, dose retest, confirmation (AID 435004); format: functional;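 also: stress induced by proteasome inhibitor MG132 added 30 min after compound; luciferase reporter driven by HSF1 response element in NIH3T3 cells; actives raise luminescence as potentiators of the MG132 stress response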
T2 sequence (P38532 whole entry): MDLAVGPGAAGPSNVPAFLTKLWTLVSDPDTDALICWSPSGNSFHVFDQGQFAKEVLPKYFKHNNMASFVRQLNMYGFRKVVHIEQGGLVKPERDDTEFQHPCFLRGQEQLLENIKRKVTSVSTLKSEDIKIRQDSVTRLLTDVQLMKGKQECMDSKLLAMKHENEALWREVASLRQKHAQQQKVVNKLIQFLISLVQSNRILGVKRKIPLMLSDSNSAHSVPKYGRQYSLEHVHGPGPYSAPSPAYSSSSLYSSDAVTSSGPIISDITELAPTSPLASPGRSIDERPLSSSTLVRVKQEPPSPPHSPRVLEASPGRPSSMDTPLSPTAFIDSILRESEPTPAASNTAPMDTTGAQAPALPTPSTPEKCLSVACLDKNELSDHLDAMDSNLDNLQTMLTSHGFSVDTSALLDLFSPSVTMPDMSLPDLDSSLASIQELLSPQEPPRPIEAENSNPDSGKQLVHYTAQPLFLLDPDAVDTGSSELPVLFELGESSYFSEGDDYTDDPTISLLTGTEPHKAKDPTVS

[8] = non-specific 3'UTR reporter inhibition in Clone20-Shn3RL – cell-based, Renilla luciferase, cherry-picked, counter-screen for Shn3 inhibitor project, dose response (AID 624133); format: functional
Coagulation factor XII = molecular target: T3, Coagulation factor XII (Homo sapiens, UniProt P00748); format: functional;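 also: activated factor XIIa alpha cleaving a fluorogenic AMC peptide substrate; inhibitor potency from loss of enzyme activity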
T3 sequence (P00748 whole entry): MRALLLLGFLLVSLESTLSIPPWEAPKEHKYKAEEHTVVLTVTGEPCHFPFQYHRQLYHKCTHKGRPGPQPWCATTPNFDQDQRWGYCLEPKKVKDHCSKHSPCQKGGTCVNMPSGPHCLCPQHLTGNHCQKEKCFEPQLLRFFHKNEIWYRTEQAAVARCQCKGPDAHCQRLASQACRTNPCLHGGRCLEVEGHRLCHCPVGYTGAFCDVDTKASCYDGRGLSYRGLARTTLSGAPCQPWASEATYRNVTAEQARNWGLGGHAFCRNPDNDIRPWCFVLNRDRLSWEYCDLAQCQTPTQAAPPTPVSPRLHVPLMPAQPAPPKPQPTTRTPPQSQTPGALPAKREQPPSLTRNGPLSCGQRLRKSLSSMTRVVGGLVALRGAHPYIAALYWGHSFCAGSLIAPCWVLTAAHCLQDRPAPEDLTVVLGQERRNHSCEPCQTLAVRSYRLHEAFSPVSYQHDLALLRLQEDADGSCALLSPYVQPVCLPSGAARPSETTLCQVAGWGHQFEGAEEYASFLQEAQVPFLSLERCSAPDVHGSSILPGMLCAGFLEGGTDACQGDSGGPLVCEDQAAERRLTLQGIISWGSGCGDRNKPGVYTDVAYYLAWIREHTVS

[9] = reduction of Shn3 3'UTR-driven luciferase in osteoblasts – cell-based, Clone20 osteoblasts, firefly luciferase, cherry-picked, dose response (AID 624132); format: functional;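 also: firefly luciferase luminescence from reporter carrying the Shn3 3'UTR in osteoblasts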
Protein Wnt-3a = Protein Wnt-3a (Mus musculus, UniProt P27467); assay: antagonism of Wnt3a pathway luciferase reporter – Wnt-LIGHT cells, luminescence, selectivity assay for Gli-SUFU antagonist project, dose response (AID 651570); format: functional; details: read-out: IC50_Mean;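 also: Wnt-LIGHT reporter cells stimulated with conditioned medium from Wnt3a-producing cells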
[10] = molecular target: T2, Heat shock factor protein 1; assay: decrease of HSF1-responsive luciferase luminescence – cell-based, NIH3T3, dose retest, confirmation (AID 2382); format: functional;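 also: NIH3T3 fibroblasts with HSF1-driven luciferase reporter stressed by proteasome inhibitor MG132; luminescence from HSF1-driven luciferase expression after 8 hours of MG132 stress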
[11] = molecular target: T4, Corticotropin-releasing factor receptor 2/Corticotropin-releasing factor-binding protein (Homo sapiens, UniProt P24387+Q13324); assay: Dose Response confirmation of uHTS hits for small molecule antagonists of the CRF-binding protein and CRF-R2 receptor complex.; format: functional; details: read-out: IC50_Mean
T4 sequence (Q13324 whole entry): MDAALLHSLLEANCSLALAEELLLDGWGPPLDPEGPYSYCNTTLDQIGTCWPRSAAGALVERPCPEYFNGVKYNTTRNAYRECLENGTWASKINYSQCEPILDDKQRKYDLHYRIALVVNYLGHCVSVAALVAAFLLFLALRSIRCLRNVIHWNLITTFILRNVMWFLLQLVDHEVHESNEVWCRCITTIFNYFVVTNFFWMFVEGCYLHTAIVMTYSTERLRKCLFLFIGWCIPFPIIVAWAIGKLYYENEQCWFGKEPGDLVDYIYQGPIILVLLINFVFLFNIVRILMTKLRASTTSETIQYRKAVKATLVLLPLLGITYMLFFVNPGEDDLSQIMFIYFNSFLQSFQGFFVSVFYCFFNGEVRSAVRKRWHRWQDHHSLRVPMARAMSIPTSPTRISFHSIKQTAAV
T4 sequence (P24387 whole entry): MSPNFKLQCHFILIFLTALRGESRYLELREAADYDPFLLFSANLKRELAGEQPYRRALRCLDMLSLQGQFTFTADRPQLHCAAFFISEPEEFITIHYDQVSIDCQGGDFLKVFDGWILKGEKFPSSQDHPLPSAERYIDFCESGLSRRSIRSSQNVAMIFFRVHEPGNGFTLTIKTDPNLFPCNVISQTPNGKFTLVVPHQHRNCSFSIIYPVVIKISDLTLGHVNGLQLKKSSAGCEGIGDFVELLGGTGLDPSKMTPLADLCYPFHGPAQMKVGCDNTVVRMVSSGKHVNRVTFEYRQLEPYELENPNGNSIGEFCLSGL

[12] = Luminescence Cell-Based Dose Retest to Confirm Inhibitors of Cancer Stem Cells. [Related pubchem assays (depositor defined):AID2717, AID2721]; format: functional; details: Homo sapiens
[13] = molecular target: T4, Corticotropin-releasing factor receptor 2/Corticotropin-releasing factor-binding protein; assay: activators of CRF receptor 2 with binding protein – uHTS hits, confirmation (AID 602473); format: functional; details: read-out: EC50_Mean
[14] = blockers of CRF-binding protein–CRF-R2 complex – cell-based, uHTS hits, 384-well, dose response (AID 651639); format: functional, Homo sapiens; details: read-out: IC50_Mean
[15] = activation of miR-122 Renilla sensor silencing – cell-based, Huh7 psiCHECK-miR122, Renilla luciferase, cherry-picked, dose response (AID 651956); format: functional;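 also: huh7 hepatoma cells stably carrying a psiCHECK-2 miR-122 sensor plasmid; renilla luciferase signal reporting endogenous miR-122 activity after 48 h compound exposure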
[16] = bead-based luminescence quenchers, dual-tagged ARNT – biochemical, AlphaScreen, cherry-pick, artefact control for ARNT-TACC3 interaction inhibitor project, dose response (AID 651705); format: functional;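 also: AlphaScreen bead proximity signal that flags compounds interfering with the detection technology; potency reflects signal decrease which marks the compound as an assay artifact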
[17] = microbe, parasite or virus in culture; format: functional; details: Mycobacterium tuberculosis
Vero [18] = assay: cells; format: functional, cell-based; details: Chlorocebus sabaeus
[19] = alpha-synuclein stem-loop luciferase translation blockers – H4 neuroglioma cells, luminescence, confirmation (AID 1988); format: functional, cell-based
[20] = luciferase reporter signal suppression in cells – H4 neuroglioma cells, luminescence, dose response (AID 1990); format: functional, cell-based
Vero [21] = assay: cells; format: functional; details: Chlorocebus sabaeus

T1 sequence (P63165 whole entry): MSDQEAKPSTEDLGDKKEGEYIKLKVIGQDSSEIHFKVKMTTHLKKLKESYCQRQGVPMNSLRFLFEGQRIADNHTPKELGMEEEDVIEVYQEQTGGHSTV
Sequence of Ras and Rab interactor 1/Tyrosine-protein kinase ABL1 (P00519 whole entry): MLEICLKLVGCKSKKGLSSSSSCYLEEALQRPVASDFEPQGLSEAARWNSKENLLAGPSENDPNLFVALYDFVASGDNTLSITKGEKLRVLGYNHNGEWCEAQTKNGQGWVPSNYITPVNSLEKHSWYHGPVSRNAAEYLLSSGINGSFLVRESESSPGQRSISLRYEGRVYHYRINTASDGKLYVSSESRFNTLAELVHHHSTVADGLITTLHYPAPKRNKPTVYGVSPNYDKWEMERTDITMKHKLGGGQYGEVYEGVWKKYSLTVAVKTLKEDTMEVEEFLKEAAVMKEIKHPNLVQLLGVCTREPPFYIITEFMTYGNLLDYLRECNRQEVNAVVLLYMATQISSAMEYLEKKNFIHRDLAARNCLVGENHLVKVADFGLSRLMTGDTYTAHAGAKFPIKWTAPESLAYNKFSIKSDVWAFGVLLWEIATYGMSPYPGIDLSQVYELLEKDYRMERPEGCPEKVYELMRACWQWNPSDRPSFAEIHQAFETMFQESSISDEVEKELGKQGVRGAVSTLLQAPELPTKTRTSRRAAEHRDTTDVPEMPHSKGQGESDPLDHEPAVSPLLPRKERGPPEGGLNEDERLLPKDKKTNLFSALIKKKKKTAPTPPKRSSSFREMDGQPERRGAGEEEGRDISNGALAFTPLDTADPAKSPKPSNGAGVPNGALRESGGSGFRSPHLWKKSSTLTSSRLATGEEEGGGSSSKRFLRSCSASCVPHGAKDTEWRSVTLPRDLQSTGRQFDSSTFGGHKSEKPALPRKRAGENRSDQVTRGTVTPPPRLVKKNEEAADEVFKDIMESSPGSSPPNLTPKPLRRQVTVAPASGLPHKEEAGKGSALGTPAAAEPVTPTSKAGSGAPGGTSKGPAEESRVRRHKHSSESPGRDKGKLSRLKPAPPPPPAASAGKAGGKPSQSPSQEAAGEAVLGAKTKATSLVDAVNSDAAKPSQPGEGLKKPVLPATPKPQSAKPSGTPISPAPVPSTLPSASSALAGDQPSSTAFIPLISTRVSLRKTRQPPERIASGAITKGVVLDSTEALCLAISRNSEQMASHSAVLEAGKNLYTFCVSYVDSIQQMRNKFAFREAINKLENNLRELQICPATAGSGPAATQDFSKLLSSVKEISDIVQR
Sequence of Ras and Rab interactor 1/Tyrosine-protein kinase ABL1 (Q13671 whole entry): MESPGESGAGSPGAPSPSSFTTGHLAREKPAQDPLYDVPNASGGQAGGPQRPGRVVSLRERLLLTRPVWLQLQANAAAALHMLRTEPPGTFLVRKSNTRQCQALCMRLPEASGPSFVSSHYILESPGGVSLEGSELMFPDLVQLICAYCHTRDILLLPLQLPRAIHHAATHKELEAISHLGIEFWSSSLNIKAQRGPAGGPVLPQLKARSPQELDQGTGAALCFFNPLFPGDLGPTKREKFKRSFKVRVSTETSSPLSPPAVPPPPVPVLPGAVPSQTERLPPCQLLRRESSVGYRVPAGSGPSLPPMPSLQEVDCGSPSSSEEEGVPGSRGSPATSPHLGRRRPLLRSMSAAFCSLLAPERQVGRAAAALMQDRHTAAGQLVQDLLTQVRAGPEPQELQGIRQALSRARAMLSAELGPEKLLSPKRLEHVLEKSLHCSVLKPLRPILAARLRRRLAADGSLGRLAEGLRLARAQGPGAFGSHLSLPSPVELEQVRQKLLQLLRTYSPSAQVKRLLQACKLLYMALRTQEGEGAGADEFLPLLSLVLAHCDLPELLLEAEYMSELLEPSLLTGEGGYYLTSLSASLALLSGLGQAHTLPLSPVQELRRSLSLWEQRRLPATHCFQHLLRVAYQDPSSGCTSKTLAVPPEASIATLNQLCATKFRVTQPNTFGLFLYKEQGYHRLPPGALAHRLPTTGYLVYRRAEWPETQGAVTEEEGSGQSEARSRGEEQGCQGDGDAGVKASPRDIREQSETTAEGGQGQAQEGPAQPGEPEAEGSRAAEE
Sequence of Protein Wnt-3a (P27467 whole entry): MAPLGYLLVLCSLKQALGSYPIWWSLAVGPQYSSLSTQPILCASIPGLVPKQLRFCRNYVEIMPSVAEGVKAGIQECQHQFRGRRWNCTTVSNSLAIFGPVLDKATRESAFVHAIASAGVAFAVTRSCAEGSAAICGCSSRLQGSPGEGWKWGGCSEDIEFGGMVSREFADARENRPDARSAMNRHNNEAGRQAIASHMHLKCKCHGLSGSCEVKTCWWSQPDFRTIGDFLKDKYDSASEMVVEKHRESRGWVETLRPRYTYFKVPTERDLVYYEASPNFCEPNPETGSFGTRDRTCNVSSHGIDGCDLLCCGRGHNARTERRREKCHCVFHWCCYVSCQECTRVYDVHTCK

## CCOCc1nnc(NC(=O)c2c(OC)cccc2OC)s1
[1]
  IC50: 18 µM (inactive)

## C=C(C)C(=O)Nc1ccc2c(c1)OCCOCCOCCO2
[2]
  IC50: > 66.6 µM (inactive)
[3]
  IC50: 1.74 µM (active)

## O=C(CN(C(=O)c1ccccc1Cl)C1CCCCC1)Nc1ccc(Cl)c([N+](=O)[O-])c1
[4]
  EC50: 17.4 µM (active)
[5]
  AC50: 63.7 µM (active)
[6]
  EC50: 16.1 µM (active)
[7]
  EC50: > 260 µM (inactive)
[8]
  AC50: 10.8 µM (active)
Coagulation factor XII
  IC50: > 50 µM (inactive)
[9]
  AC50: 5.1 µM (active)

## CCOC(CN=c1nc(N(C)C)ss1)OCC
Protein Wnt-3a
  IC50: 40.4 µM (inactive)

## COc1cccc(CNc2ccc(S(N)(=O)=O)cc2)c1OC
[10]
  EC50: > 195 µM (not active)
Coagulation factor XII
  IC50: > 50 µM (inactive)

## Cc1cc(C)nc(SCc2ccc(C(=O)NNC(=O)Nc3cccc(Cl)c3)cc2)n1
[11]
  IC50: 5.95 µM (active)
[12]
  AC50: 3.65 µM (active)
[13]
  EC50: > 53 µM (inactive)
[14]
  IC50: 11.6 µM (active)

## CN(c1ccccc1)S(=O)(=O)c1ccc(C(=O)Nc2cccc(S(=O)(=O)N3CCOCC3)c2)cc1
[15]
  AC50: 59.3 µM (active)

## c1ccc(-c2n[nH]c(-c3ccccn3)n2)cc1
[16]
  AC50: 116 µM (active)
[17]
  CC50: > 40 µM (active)

## O=C(NC1CCCc2c1cnn2-c1ccccc1F)c1ccccn1 (stereo unspecified)
Vero [18]
  IC50: 5.73 µM (active)
[19]
  EC50: 57.4 µM (active)
[20]
  EC50: > 120 µM (not active)
Vero [21]
  CC50: > 25 µM (active)

## CN(C)CC1CCC/C(=C/c2ccc(Cl)cc2)C1=O (stereo unspecified)
Vero [18]
  IC50: > 25 µM (active)
Vero [21]
  CC50: 21.4 µM (active)
